Experimental data taken from paper PMC5789083, “Mechanisms driving the antibacterial and antibiofilm properties of Hp1404 and its analogue peptides against multidrug-resistant Pseudomonas aeruginosa” (Scientific Reports, 2018).
Where no end group is shown, it is not given here.

Experiments:
mouse red blood cells = assay: Hemolytic activity; type: cell-based; settings: 8% mouse RBCs in PBS, 37 °C, 1 h, A414, triplicate
Experimental: The hemolytic activities of the peptides were determined as previously described. Fresh mouse red blood cells (RBCs) were washed and diluted to 8% with PBS. RBC suspension was added to 96-well plates (100 µL/well), mixed with an equal volume of serially diluted peptides, and incubated at 37 °C for 1 h with gentle shaking. The plate was centrifuged and the supernatant was transferred to a 96-well plate. The absorbance at 414 nm was measured with a Versa-Max ELISA reader (Molecular Devices). PBS and 0.1% Triton X-100 were used as negative and positive controls, respectively. The experiment was performed in triplicate. The hemolysis rate was calculated using the following formula[55]: % Hemolysis = [(Abs 414 nm in the peptide solution-Abs 414 nm in PBS)/(Abs 414 nm in 0.1% Triton X-100-Abs 414 nm in PBS)] × 100

mammalian cells = settings: at concentrations below 50 µM; cited from earlier work
Experimental: In a previous study, Hp1404 was purified from the venomous gland of the scorpion Heterometrus petersii. […] Moreover, it is not toxic to mammalian cells at concentrations below 50 µM[20].

trypsin = assay: Trypsin stability assay; type: in vitro ADME; settings: trypsin (25 nM) in sodium phosphate buffer, 20 µg peptide in 100 µL 10 mM sodium phosphate buffer pH 7.4 with 25 nM trypsin, 37 °C, RP-HPLC peak area of native peptide (C18), repeated three times, read-out: remaining peptide after trypsin treatment
Experimental: Each sample with trypsin was analysed by RT-HPLC on a Jupiter C18 column (4.6 × 250 mm, 300 Å, 5 µm; Phenomenex). Stability was expressed as the percentage of remaining peptide, which in turn was determined by comparing the HPLC peak areas, corresponding to the peak detected for the native peptide, before and after trypsin treatment. […]
(§1) released calcein was measured at an excitation wavelength of 480 nm and an emission […]
Trypsin stability assay. Peptides were treated with trypsin, and results were ev aluated usin g RP-HP LC, as described previously3. Briefly, 20 µ g of peptide was mixed with 100 µ L of 10 mM sodium phosphate buffer (pH 7.4) containing 25 nM trypsin (Sigma-Aldrich), and incubated at 37 °C for 1 h or 2 h. A fter incubation, 20 µL of each sampl e was anal ysed b y RT-HP LC on a J upiter C18 column (4.6 × 250 m m, 300 Å, 5 µm; Phenomenex).
(§2) PI uptake assay. Bacteri al membrane damage was assessed through monitoring the changes in fluorescence generated by the propidium iodide (P I) dye, as described previousl y4. Briefl y, P. aeruginosa ATCC 27853 was grown in NB to logarithmic phase of growth, and then diluted to OD600 = 0.25 in 10 mM sodium phosphate (pH 7.2) buffer with 10 % medium. […] PI fluorescence was monitored at an excitation wavelength of 580 nm and emission wavelength of 620 nm, using a micropl ate reader (Molecular Devices Co., Sunnyvale, CA, USA), during 30 min.

P. aeruginosa ATCC 27853 = assay: Time-killing assay; type: cell-based, Pseudomonas aeruginosa; settings: at 2 hours; 2× MIC, P. aeruginosa ATCC 27853, 2 × 10^5 CFU/mL, colony counts in triplicate
Source text: Peptide synthesis and purification. The peptides were s ynthesized using the solid- phase-9-fluorenylmethoxycarbonyl (Fmoc) method, as reported previously1, on a Rink amide 4-methylbenzhydrylamine resin, using a Liberty microwave peptide synthesizer (CEM, Matthews, NY, USA). The following chemicals were us ed as linkage reagents: 0.45 M 2- (1H - benzotriazole-1- yil)-1,1,3,3- tetramethyluronium hexafluorophosphate (HBTU) diluted in dimethylformamide (DMF), 0.1 M N -hydroxybenzotriazole (HOBt) diluted in piperidine/DMF, and 2 M N ,N -diisopropyleth ylamine (DIEA) diluted in N -methylp yrrolidone (NMP). After washing with dichloromethane (DCM), cleavage was performed by incubating for 2 h at 25 °C in a trifluoroacetic acid (TFA) solution containing water, phenol, and triisopropylsilane. The crude peptide was precipitated by dilution with ice-cold diethyl ether, then spread on the tube wall, and dried. After resuspension in 25 °C water, the peptide was purified by reversed phase high- performance liquid chromatograph y (RP-HP LC) on a Jupiter C18 column (4.6 × 250 mm, 300 Å, 5 µm; Phenomenex, Torrance, CA, USA). […]
(§3) Ti me -killing assay. […] After an 18- h incubation, the colonies were counted and aver age counts wer e determined.
(§4) Calcein leakage assay. […] The fluorescence generated from the […]

[1] = Calcein leakage assay, PC:CH:SM LUVs; settings: PC:CH:SM (1:1:1, w/w) LUVs mimicking mammalian cell membranes (Fig. S4)
Source text: Peptide synthesis and purification. The peptides were s ynthesized using the solid- phase-9-fluorenylmethoxycarbonyl (Fmoc) method, as reported previously1, on a Rink amide 4-methylbenzhydrylamine resin, using a Liberty microwave peptide synthesizer (CEM, Matthews, NY, USA). The following chemicals were us ed as linkage reagents: 0.45 M 2- (1H - benzotriazole-1- yil)-1,1,3,3- tetramethyluronium hexafluorophosphate (HBTU) diluted in dimethylformamide (DMF), 0.1 M N -hydroxybenzotriazole (HOBt) diluted in piperidine/DMF, and 2 M N ,N -diisopropyleth ylamine (DIEA) diluted in N -methylp yrrolidone (NMP). […]
as §3, §4, §1
as §2, with “y4.” for “y4. Briefl y, P. aeruginosa ATCC 27853 was grown in NB to logarithmic phase of growth, and then diluted to OD600 = 0.25 in 10 mM sodium phosphate (pH 7.2) buffer with 10 % medium.”

| Substance | hemolysis rate (mouse red blood cells; 12.5 µM) [%] | hemolysis rate (mouse red blood cells; 25 µM) [%] | hemolysis rate (mouse red blood cells; 50 µM) [%] | hemolysis rate (mouse red blood cells; 100 µM) [%] | hemolysis rate (mouse red blood cells; 200 µM) [%] | toxicity to mammalian cells (mammalian cells) | remaining at 2 h, 0.2 mg/mL (trypsin) [%] | bacteria killed (P. aeruginosa ATCC 27853) [%] | toxicity by calcein leakage assay [1] |
| --- | --- | --- | --- | --- | --- | --- | --- | --- | --- |
| GILGKLWEGVKSIF-NH2 [Hp1404] | 2 | 11 | 55 | 92 | 100 | not toxic | 50 |  |  |
| ILKKLLKKVKKI-NH2 [Hp1404-T1e] |  |  |  |  |  |  |  | 85 | not toxic |
